# Target: P2X7 (Homo sapiens (Human), UniProt Q99572)
# Test: P2X7 antagonism in human peripheral blood mononuclear cells (PBMCs), IL-1β release
# Type: cell-based
# Conditions: 10 μM compound; for remaining activity at 10 µM: P2X7, Table 3 (additional runs), read-out: PBMC 10 μM (% control); for PBMC 10 μM (% control): Table 2, IL-1β release, LPS + 0.5 mM Bz-ATP
# Protocol: P2X7 Antagonism in Human Peripheral Blood Mononuclear Cells (PBMCs) and Human Whole Blood.
# Human blood was collected using a blood donor program. PBMCs were isolated from blood using a Ficoll density gradient technique. Briefly, blood was laid on Ficoll solution and centrifuged at RT for 20 minutes at 2000 rpm. The buffy layer (between red blood cells and plasma) was carefully collected by aspiration, washed with PBS and centrifuged again at 1500 rpm for 15 minutes. The resulting cell pellet was washed and plated on 96 well-plates for experiments. For the Human Whole Blood experiments, 150 μl of human blood was platted on 96 well-plates. Lipopolysaccharide (LPS) (30 ng/ml) was added to each well and incubated for 1 hour. Test compounds were then added and incubated for 30 minutes. The P2X7 agonist, 2′(3′)-O-(4-benzoylbenzoyl) adenosine 5′-triphosphate (Bz-ATP) was then added at a final concentration of 0.5 mM (PBMC) or 1 mM (blood). Cells were incubated for an additional 1.5 hours. At that point, supernatant was collected and stored for IL-1β assay using manufacturer's protocol for enzyme-linked immunosorbent assay (ELISA). Data was expressed as percent control, where control is defined as the difference in IL-1β release in LPS+Bz-ATP samples and LPS only samples. Data was plotted as response (% control) versus concentration to generate IC50 values. […] Data are analyzed and graphed on Graphpad Prism 5. For analysis, each concentration point is averaged from triplicate values and the averaged values are plotted on Graphpad Prism.
# Chain of P2X7 (Q99572 whole entry): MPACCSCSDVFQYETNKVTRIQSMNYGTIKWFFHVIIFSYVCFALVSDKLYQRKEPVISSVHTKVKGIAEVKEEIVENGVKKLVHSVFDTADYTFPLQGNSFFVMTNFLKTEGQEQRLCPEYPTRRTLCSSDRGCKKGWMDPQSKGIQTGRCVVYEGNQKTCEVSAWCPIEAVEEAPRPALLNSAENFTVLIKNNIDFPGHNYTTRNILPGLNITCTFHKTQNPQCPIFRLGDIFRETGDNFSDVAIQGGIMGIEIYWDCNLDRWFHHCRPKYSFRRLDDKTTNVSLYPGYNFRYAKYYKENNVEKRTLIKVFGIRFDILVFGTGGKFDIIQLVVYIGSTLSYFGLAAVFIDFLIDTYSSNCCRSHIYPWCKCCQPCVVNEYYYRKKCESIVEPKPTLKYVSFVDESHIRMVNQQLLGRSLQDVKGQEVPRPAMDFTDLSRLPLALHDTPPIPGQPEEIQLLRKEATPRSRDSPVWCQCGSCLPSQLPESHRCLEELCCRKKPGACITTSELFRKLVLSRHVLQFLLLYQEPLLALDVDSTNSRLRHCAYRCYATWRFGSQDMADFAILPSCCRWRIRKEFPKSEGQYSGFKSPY
SMILES,remaining activity at 10 µM [%],PBMC 10 μM (% control)
"CC(c1ccccc1)N1C(=O)c2nnc(-c3cnccn3)n2C[C@@H]1C (stereo partly drawn) [Example 92, (6S)-6-Methyl-7-(1-phenylethyl)-3-pyrazin-2-yl-6,7-dihydro[1,2,4]triazolo[4,3-a]pyrazin-8(5H)-one]",-1,
"C[C@H]1Cn2c(nnc2-c2cnccn2)C(=O)N1Cc1cccc(C(F)(F)F)c1Cl [Example 16, (6S)-7-[2-Chloro-3-(trifluoromethyl)benzyl]-6-methyl-3-pyrazin-2-yl-6,7-dihydro[1,2,4]triazolo[4,3-a]pyrazin-8(5H)-one]",8.4,13.4
"C[C@H]1Cn2c(nnc2-c2ccncn2)C(=O)N1Cc1cccc(C(F)(F)F)c1Cl [Example 33, (6S)-7-[2-Chloro-3-(trifluoromethyl)benzyl]-6-methyl-3-pyrimidin-4-yl-6,7-dihydro[1,2,4]triazolo[4,3-a]pyrazin-8(5H)-one]",0.9,
"C[C@H]1Cn2c(nnc2-c2ccc(Cl)cn2)C(=O)N1Cc1cccc(C(F)(F)F)c1Cl [Example 56, (6S)-3-(5-Chloropyridin-2-yl)-7-[2-chloro-3-(trifluoromethyl)benzyl]-6-methyl-6,7-dihydro[1,2,4]triazolo[4,3-a]pyrazin-8(5H)-one]",11.2,
"C[C@H]1Cn2c(nnc2-c2cnccn2)C(=O)N1Cc1cc(N)ccc1Cl [Example 91, (6S)-7-(5-Amino-2-chlorobenzyl)-6-methyl-3-pyrazin-2-yl-6,7-dihydro[1,2,4]triazolo[4,3-a]pyrazin-8(5H)-one]",11.6,
"Cc1cncc(-c2nnc3n2C[C@H](C)N(Cc2cccc(C(F)(F)F)c2Cl)C3=O)c1 [Example 57, (6S)-7-[2-Chloro-3-(trifluoromethyl)benzyl]-6-methyl-3-(5-methylpyridin-3-yl)-6,7-dihydro[1,2,4]triazolo[4,3-a]pyrazin-8(5H)-one]",0.1,
"C[C@H]1Cn2c(nnc2-c2cnccn2)C(=O)N1Cc1ccccc1Cl [Example 80, (6S)-7-(2-Chlorobenzyl)-6-methyl-3-pyrazin-2-yl-6,7-dihydro[1,2,4]triazolo[4,3-a]pyrazin-8(5H)-one]",8.4,
"C[C@H]1Cn2c(nnc2-c2cnn(C)c2)C(=O)N1Cc1cccc(C(F)(F)F)c1Cl [Example 24, (6S)-7-[2-Chloro-3-(trifluoromethyl)benzyl]-6-methyl-3-(1-methyl-1H-pyrazol-4-yl)-6,7-dihydro[1,2,4]triazolo[4,3-a]pyrazin-8(5H)-one]",-0.7,
"CC[C@H]1Cn2c(nnc2-c2cnccn2)C(=O)N1Cc1cccc(C(F)(F)F)c1Cl [Example 71, (6S)-7-[2-Chloro-3-(trifluoromethyl)benzyl]-6-ethyl-3-pyrazin-2-yl-6,7-dihydro[1,2,4]triazolo[4,3-a]pyrazin-8(5H)-one]",1.2,1.2
"C[C@H]1Cn2c(nnc2-c2cn[nH]c2)C(=O)N1Cc1cccc(C(F)(F)F)c1Cl [Example 25, (6S)-7-[2-Chloro-3-(trifluoromethyl)benzyl]-6-methyl-3-(1H-pyrazol-4-yl)-6,7-dihydro[1,2,4]triazolo[4,3-a]pyrazin-8(5H)-one]",2.8,
"C[C@H]1Cn2c(nnc2-c2cncs2)C(=O)N1Cc1cccc(C(F)(F)F)c1Cl [Example 37, (6S)-7-[2-Chloro-3-(trifluoromethyl)benzyl]-6-methyl-3-(1,3-thiazol-5-yl)-6,7-dihydro[1,2,4]triazolo[4,3-a]pyrazin-8(5H)-one]",9,
"C[C@H]1Cn2c(nnc2C2CCC2)C(=O)N1Cc1cccc(C(F)(F)F)c1Cl [Example 49, (6S)-7-[2-Chloro-3-(trifluoromethyl)benzyl]-3-cyclobutyl-6-methyl-6,7-dihydro[1,2,4]triazolo[4,3-a]pyrazin-8(5H)-one]",-3.1,
"C[C@H]1Cn2cnnc2-c2nnc(-c3cccc(C(F)(F)F)c3Cl)n21 [Example 107, (5S)-3-[2-Chloro-3-(trifluoromethyl)phenyl]-5-methyl-5,6-dihydrobis[1,2,4]triazolo[4,3-a:3′,4′-c]pyrazine]",40.2,

# Reference: patent US10053463B2 (Janssen Pharmaceutica NV, priority 2013, dated 2018)
